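Cells were grown in 96-well plates and exposed to each compound for 48 hours at five concentrations; endpoints were interpolated linearly between bracketing concentrations, or set to the highest concentration if not reached. Abbreviation: GI50, concentration required for 50% inhibition of growth.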 Calls of active or inactive are those of the source. No stated cut-off is given here; in the data, active = GI50 up to about 1.1 µM and inactive = higher.
Legend:
Assay in all cases: inhibition of tumour cell growth, NCI panel, 48 h
[1] = system: 786-0
[2] = system: A498
[3] = system: A549
[4] = system: ACHN
[5] = system: BT-549
[6] = system: CCRF-CEM
[7] = system: COLO 205
[8] = system: DU-145
[9] = system: EKVX
[10] = system: HCC 2998
[11] = system: HCT-116
[12] = system: HCT-15
[13] = system: HOP-62
[14] = system: HOP-92
[15] = system: HT-29
[16] = system: Hs-578T
[17] = system: IGROV-1
[18] = system: K562
[19] = system: KM12
[20] = system: LOX IMVI
[21] = system: M14
[22] = system: MCF7
[23] = system: MDA-MB-231
[24] = system: MDA-MB-435
[25] = system: MDA-N
[26] = system: MOLT-4
[27] = system: Malme-3M
[28] = system: NCI-H226
[29] = system: NCI-H23
[30] = system: NCI-H460
[31] = system: NCI-H522
[32] = system: NCI/ADR-RES
[33] = system: OVCAR-3
[34] = system: OVCAR-4
[35] = system: OVCAR-5
[36] = system: OVCAR-8
[37] = system: PC-3
[38] = system: RPMI-8226
[39] = system: RXF 393
[40] = system: SF-268
[41] = system: SF-295
[42] = system: SF-539
[43] = system: SK-MEL-28
[44] = system: SK-MEL-2
[45] = system: SK-MEL-5
[46] = system: SK-OV-3
[47] = system: SN12C
[48] = system: SNB-19
[49] = system: SNB-75
[50] = system: SR
[51] = system: SW-620
[52] = system: T47D
[53] = system: TK-10
[54] = system: U-251
[55] = system: UACC-257
[56] = system: UACC-62
[57] = system: UO-31
[58] = system: CAKI-1
[59] = system: HL-60

Measured: GI50

CC(C)(C)OC(=O)N(O)CCCn1cnc2c(N)ncnc21
inactive: [1] > 100 µM | [2] > 100 µM | [3] > 100 µM | [4] > 100 µM | [5] > 100 µM | [6] > 100 µM | [7] > 100 µM | [8] > 100 µM | [9] > 100 µM | [10] > 100 µM | [11] > 100 µM | [13] > 100 µM | [14] > 100 µM | [15] > 100 µM | [16] > 100 µM | [17] > 100 µM | [18] > 100 µM | [19] > 100 µM | [20] > 100 µM | [21] > 100 µM | [22] > 100 µM | [23] > 100 µM | [24] > 100 µM | [25] > 100 µM | [26] > 100 µM | [27] > 100 µM | [28] > 100 µM | [29] > 100 µM | [30] > 100 µM | [31] > 100 µM | [32] > 100 µM | [33] > 100 µM | [34] > 100 µM | [35] > 100 µM | [36] > 100 µM | [37] > 100 µM | [38] > 100 µM | [39] > 100 µM | [40] > 100 µM | [41] > 100 µM | [42] > 100 µM | [43] > 100 µM | [44] > 100 µM | [45] > 100 µM | [46] > 100 µM | [47] > 100 µM | [48] > 100 µM | [49] > 100 µM | [50] > 100 µM | [51] > 100 µM | [52] > 100 µM | [53] > 100 µM | [54] > 100 µM | [55] > 100 µM | [56] > 100 µM | [57] > 100 µM
> 100 µM: [12]

CC(=S)NC=C(C(N)=O)C(N)=O
inactive: [1] > 100 µM | [2] > 100 µM | [3] > 100 µM | [4] > 100 µM | [5] > 100 µM | [58] > 100 µM | [6] > 100 µM | [7] > 100 µM | [8] > 100 µM | [9] > 100 µM | [10] > 100 µM | [11] > 100 µM | [59] > 100 µM | [13] > 100 µM | [14] 3.26 µM | [15] > 100 µM | [16] > 100 µM | [17] > 100 µM | [18] > 100 µM | [19] > 100 µM | [20] > 100 µM | [21] > 100 µM | [22] > 100 µM | [23] > 100 µM | [24] > 100 µM | [25] > 100 µM | [26] > 100 µM | [27] > 100 µM | [28] > 100 µM | [29] > 100 µM | [31] > 100 µM | [32] > 100 µM | [33] > 100 µM | [35] > 100 µM | [36] > 100 µM | [37] > 100 µM | [38] > 100 µM | [39] > 100 µM | [40] > 100 µM | [41] > 100 µM | [42] > 100 µM | [43] > 100 µM | [44] > 100 µM | [45] > 100 µM | [46] > 100 µM | [47] > 100 µM | [49] > 100 µM | [50] > 100 µM | [51] > 100 µM | [52] > 100 µM | [54] > 100 µM | [55] > 100 µM | [56] > 100 µM
> 100 µM: [12]

CCOC(=O)CCC(NC(=O)N1CCN(c2c(C)nc(C)nc2O)CC1)C(=O)OCC (stereo not drawn)
inactive: [1] > 100 µM | [2] > 100 µM | [3] > 100 µM | [4] > 100 µM | [5] > 100 µM | [58] > 100 µM | [6] > 100 µM | [7] > 100 µM | [8] > 100 µM | [9] > 100 µM | [10] > 100 µM | [11] > 100 µM | [59] > 100 µM | [13] > 100 µM | [14] > 100 µM | [15] > 100 µM | [16] > 100 µM | [17] > 100 µM | [18] > 100 µM | [19] > 100 µM | [20] > 100 µM | [21] > 100 µM | [22] > 100 µM | [23] > 100 µM | [24] > 100 µM | [25] > 100 µM | [26] > 100 µM | [27] > 100 µM | [28] > 100 µM | [29] > 100 µM | [30] > 100 µM | [31] > 100 µM | [32] > 100 µM | [33] > 100 µM | [34] > 100 µM | [35] > 100 µM | [36] > 100 µM | [37] > 100 µM | [38] > 100 µM | [39] > 100 µM | [40] > 100 µM | [41] > 100 µM | [42] > 100 µM | [43] > 100 µM | [46] > 100 µM | [47] > 100 µM | [48] > 100 µM | [50] > 100 µM | [51] > 100 µM | [52] > 100 µM | [53] > 100 µM | [54] > 100 µM | [55] > 100 µM | [56] > 100 µM | [57] > 100 µM
active: [49] < 0.01 µM
> 100 µM: [12]

— ChEMBL document CHEMBL1201862, “PubChem BioAssay data set” (2004)
